According to patent US20230150974A1 (Foghorn Therapeutics Inc., priority 2020, published 2023):

What was measured:
HiBiT-BRM = target: T1, HiBiT-BRM (Homo sapiens, UniProt P51531); assay: HiBiT-BRM cell-based degradation assay (Nano-Glo HiBiT Lytic Detection); settings: HeLa cells expressing HiBiT-BRM, 24 h; for DC50: read-out: BRM HiBit Degradation IC50
T1 construct: expressed in transfected cells
Procedure, shortened: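 HeLa cells stably expressing HiBiT-tagged BRM were treated for 24 h, then lysed with LgBiT-containing Nano-Glo reagent and luminescence read. % degradation scaled between DMSO (high control) and 2 μM reference BRM/BRG1 degrader (low control).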

HiBit-BRG1 = target: T2, HiBit-BRG1 (Homo sapiens, UniProt P51532); assay: HiBit-BRG1 cell-based degradation assay (Nano-Glo HiBiT Lytic Detection); settings: HeLa cells expressing HiBit-BRG1 and LgBit, 24 h; for DC50: read-out: BRG1 HiBit Degradation IC50; for Dmax: read-out: BRG1 HiBit Degradation Maximum (%)
T2 construct: expressed in transfected cells
Procedure, shortened: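 Percent degradation derived from lytic HiBiT signal, normalized to DMSO-treated cells and to cells given 2 μM of a known BRM/BRG1 degrader. The HeLa line stably expressed HiBit-BRG1 and LgBit; treatment lasted 24 h at 5000 cells per well.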

T2 sequence (P51532 whole entry): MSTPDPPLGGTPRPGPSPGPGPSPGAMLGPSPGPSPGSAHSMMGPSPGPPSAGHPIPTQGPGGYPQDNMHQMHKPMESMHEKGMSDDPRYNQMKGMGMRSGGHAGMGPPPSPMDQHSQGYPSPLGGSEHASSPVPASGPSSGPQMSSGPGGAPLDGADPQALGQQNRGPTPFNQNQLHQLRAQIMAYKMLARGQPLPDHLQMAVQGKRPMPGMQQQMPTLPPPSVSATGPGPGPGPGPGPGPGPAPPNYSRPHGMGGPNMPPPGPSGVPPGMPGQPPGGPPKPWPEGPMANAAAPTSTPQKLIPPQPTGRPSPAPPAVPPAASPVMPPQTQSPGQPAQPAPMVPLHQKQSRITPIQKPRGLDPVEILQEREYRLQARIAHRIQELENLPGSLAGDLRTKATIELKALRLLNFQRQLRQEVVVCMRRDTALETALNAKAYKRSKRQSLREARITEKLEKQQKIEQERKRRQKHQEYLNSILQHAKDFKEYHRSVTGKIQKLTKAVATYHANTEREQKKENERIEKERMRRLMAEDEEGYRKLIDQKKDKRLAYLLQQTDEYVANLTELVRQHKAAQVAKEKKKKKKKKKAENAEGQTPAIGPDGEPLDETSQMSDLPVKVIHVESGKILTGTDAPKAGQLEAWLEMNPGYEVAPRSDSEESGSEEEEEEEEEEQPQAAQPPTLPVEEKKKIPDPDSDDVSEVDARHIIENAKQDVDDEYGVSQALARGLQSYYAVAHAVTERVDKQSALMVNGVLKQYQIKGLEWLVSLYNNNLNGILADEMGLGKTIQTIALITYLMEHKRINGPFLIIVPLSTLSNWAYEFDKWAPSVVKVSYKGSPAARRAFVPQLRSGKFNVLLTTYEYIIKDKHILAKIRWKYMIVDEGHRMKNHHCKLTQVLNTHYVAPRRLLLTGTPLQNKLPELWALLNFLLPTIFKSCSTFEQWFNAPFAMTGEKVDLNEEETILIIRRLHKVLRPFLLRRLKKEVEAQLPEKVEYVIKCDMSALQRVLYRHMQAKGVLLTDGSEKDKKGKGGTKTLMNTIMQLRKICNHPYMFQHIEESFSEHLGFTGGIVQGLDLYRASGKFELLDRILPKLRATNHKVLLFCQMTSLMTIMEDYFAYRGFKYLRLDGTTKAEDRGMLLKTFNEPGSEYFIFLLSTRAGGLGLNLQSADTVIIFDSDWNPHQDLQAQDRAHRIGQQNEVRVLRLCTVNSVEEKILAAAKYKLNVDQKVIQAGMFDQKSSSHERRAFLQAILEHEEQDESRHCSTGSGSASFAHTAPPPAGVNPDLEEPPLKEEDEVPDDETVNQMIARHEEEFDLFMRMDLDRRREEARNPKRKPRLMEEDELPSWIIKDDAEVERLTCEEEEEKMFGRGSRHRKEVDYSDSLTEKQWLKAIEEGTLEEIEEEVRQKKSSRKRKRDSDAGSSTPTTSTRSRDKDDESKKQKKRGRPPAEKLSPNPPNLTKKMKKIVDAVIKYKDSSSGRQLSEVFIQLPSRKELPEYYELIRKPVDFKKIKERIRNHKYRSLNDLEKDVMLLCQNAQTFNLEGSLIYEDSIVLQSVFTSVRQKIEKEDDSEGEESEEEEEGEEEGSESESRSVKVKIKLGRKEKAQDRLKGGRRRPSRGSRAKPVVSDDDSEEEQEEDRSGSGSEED
T1 sequence (P51531 whole entry): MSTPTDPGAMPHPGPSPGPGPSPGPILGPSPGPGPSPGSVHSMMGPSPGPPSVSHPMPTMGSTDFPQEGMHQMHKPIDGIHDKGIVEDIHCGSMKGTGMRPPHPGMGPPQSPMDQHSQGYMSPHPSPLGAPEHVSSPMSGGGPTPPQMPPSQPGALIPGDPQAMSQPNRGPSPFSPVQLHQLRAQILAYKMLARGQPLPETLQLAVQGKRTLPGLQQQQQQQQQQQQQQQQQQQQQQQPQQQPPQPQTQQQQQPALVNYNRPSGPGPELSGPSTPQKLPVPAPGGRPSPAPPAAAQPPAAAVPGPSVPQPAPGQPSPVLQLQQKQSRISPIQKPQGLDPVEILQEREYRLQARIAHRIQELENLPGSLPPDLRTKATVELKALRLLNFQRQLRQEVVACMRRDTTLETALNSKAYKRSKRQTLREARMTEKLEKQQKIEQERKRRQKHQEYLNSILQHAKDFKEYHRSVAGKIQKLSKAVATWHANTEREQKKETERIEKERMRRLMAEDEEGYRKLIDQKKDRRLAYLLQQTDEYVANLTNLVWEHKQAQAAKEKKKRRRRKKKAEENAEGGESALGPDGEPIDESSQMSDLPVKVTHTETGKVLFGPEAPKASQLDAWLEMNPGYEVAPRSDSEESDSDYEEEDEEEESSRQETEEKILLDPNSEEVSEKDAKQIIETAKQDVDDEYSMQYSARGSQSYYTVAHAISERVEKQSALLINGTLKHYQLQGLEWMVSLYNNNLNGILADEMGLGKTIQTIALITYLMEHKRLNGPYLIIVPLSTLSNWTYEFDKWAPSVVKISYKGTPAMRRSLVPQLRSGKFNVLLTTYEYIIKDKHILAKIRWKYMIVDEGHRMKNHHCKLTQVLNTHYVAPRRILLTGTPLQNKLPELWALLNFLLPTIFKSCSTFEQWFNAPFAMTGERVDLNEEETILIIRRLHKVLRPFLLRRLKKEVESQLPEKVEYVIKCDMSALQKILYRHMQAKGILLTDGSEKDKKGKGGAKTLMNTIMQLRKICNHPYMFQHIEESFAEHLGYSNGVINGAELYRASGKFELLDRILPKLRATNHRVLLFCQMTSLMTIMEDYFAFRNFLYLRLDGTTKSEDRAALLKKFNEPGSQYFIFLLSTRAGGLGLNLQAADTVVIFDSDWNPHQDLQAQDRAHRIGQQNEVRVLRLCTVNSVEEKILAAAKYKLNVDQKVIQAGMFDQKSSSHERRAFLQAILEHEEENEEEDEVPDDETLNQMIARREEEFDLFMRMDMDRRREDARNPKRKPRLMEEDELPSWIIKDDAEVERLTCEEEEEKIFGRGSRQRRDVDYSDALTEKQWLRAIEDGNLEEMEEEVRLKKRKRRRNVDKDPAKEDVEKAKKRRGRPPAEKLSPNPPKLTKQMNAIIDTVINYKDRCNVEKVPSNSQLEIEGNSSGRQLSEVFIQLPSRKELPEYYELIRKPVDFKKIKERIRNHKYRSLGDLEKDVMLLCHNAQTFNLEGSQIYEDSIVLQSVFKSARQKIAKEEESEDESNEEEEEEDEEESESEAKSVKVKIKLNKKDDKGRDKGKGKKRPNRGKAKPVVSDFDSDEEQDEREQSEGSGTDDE

| Structure (SMILES) | DC50 (HiBiT-BRM) | DC50 (HiBit-BRG1) | Dmax (HiBit-BRG1) | BRM HiBit Degradation Maximum (%) (HiBiT-BRM) |
| --- | --- | --- | --- | --- |
| Cc1ncsc1-c1ccc([C@H](C)NC(=O)[C@@H]2C[C@@H](O)CN2C(=O)[C@@H](NC(=O)CCCCCCCCCCCCCCC(=O)NCc2ccc(CCOc3cc(-c4ccccc4O)nnc3N)cc2)C(C)(C)C)cc1 [Compound 214, N1-(4-(2-((3-amino-6-(2-hydroxyphenyl)pyridazin-4-yl)oxy)ethyl)benzyl)-N16-((S)-1-((2S,4R)-4-hydroxy-2-(((S)-1-(4-(4-methylthiazol-5-yl)phenyl)ethyl)carbamoyl)pyrrolidin-1-yl)-3,3-dimethyl-1-oxobutan-2-yl)hexadecanediamide] | > 0.01 µM | > 1 µM | < 50% | A (“A” indicates maximum degradation ≥75%) |
| Cc1ncsc1-c1ccc(CNC(=O)[C@@H]2C[C@@H](O)CN2C(=O)[C@@H](NC(=O)CCN2[C@@H]3CC[C@H]2CN(C(=O)c2ccc(CCOc4cc(-c5ccccc5O)nnc4N)cc2)C3)C(C)(C)C)cc1 [Compound 216, (2S,4R)-1-((2S)-2-(3-(3-(4-(2-((3-amino-6-(2-hydroxyphenyl)pyridazin-4-yl)oxy)ethyl)benzoyl)-3,8-diazabicyclo[3.2.1]octan-8-yl)propanamido)-3,3-dimethylbutanoyl)-4-hydroxy-N-(4-(4-methylthiazol-5-yl)benzyl)pyrrolidine-2-carboxamide] | > 1 µM | > 1 µM | < 50% | C (“C” indicates maximum degradation <50%) |

More lines, main results first:

| DC50 (HiBiT-BRM) | DC50 (HiBit-BRG1) | Dmax (HiBit-BRG1) | Structure (SMILES) | BRM HiBit Degradation Maximum (%) (HiBiT-BRM) |
| --- | --- | --- | --- | --- |
| > 0.01 µM | > 1 µM | < 50% | Cc1ncsc1-c1ccc([C@H](C)NC(=O)[C@@H]2C[C@@H](O)CN2C(=O)[C@@H](NC(=O)CCCCCCCCCCCCCCC(=O)N(C)Cc2ccc(CCOc3cc(-c4ccccc4O)nnc3N)cc2)C(C)(C)C)cc1 [Compound 215, N1-(4-(2-((3-amino-6-(2-hydroxyphenyl)pyridazin-4-yl)oxy)ethyl)benzyl)-N16-((S)-1-((2S,4R)-4-hydroxy-2-(((S)-1-(4-(4-methylthiazol-5-yl)phenyl)ethyl)carbamoyl)pyrrolidin-1-yl)-3,3-dimethyl-1-oxobutan-2-yl)-N1-methylhexadecanediamide] | A (“A” indicates maximum degradation ≥75%) |
| > 0.01 µM | > 1 µM | < 50% | Cc1ncsc1-c1ccc([C@H](C)NC(=O)[C@@H]2C[C@@H](O)CN2C(=O)[C@@H](c2cc(OCCN3CCN(c4cc(-c5ccccc5O)nnc4N)CC3)no2)C(C)C)cc1 [Compound 217, (2S,4R)-1-((R)-2-(3-(2-(4-(3-amino-6-(2-hydroxyphenyl)pyridazin-4-yl)piperazin-1-yl)ethoxy)isoxazol-5-yl)-3-methylbutanoyl)-4-hydroxy-N-((S)-1-(4-(4-methylthiazol-5-yl)phenyl)ethyl)pyrrolidine-2-carboxamide] | A (“A” indicates maximum degradation ≥75%) |
| > 0.1 µM | > 1 µM | < 50% | Cc1ncsc1-c1ccc([C@H](C)NC(=O)[C@@H]2C[C@@H](O)CN2C(=O)[C@@H](c2cc(OCCNCCCCC(=O)NCc3ccc(CCOc4cc(-c5ccccc5O)nnc4N)cc3)no2)C(C)C)cc1 [Compound 218, (2S,4R)-1-((R)-2-(3-(2-((5-((4-(2-((3-amino-6-(2-hydroxyphenyl)pyridazin-4-yl)oxy)ethyl)benzyl)amino)-5-oxopentyl)amino)ethoxy)isoxazol-5-yl)-3-methylbutanoyl)-4-hydroxy-N-((S)-1-(4-(4-methylthiazol-5-yl)phenyl)ethyl)pyrrolidine-2-carboxamide] | B (“B” indicates maximum degradation ≥50%) |
